# Legend:
# Format in all cases: cell-based
# KCNQ2 [1] = target: KCNQ2 (Rattus norvegicus, UniProt O88943, R198A); test: whole-cell voltage clamp, CHO cells
# KCNQ2/KCNQ3 = KCNQ2/KCNQ3 (Rattus norvegicus, UniProt O88943+O88944); test: whole-cell patch clamp, transfected CHO cells; conditions: activator, −10 mV test potential, room temperature, bath pH 7.4
# KCNQ2 [2] = target: KCNQ2 (Rattus norvegicus, UniProt O88943); test: whole-cell voltage clamp, CHO cells
# Chain of KCNQ2 (Rattus norvegicus, UniProt O88943) (O88943 whole entry): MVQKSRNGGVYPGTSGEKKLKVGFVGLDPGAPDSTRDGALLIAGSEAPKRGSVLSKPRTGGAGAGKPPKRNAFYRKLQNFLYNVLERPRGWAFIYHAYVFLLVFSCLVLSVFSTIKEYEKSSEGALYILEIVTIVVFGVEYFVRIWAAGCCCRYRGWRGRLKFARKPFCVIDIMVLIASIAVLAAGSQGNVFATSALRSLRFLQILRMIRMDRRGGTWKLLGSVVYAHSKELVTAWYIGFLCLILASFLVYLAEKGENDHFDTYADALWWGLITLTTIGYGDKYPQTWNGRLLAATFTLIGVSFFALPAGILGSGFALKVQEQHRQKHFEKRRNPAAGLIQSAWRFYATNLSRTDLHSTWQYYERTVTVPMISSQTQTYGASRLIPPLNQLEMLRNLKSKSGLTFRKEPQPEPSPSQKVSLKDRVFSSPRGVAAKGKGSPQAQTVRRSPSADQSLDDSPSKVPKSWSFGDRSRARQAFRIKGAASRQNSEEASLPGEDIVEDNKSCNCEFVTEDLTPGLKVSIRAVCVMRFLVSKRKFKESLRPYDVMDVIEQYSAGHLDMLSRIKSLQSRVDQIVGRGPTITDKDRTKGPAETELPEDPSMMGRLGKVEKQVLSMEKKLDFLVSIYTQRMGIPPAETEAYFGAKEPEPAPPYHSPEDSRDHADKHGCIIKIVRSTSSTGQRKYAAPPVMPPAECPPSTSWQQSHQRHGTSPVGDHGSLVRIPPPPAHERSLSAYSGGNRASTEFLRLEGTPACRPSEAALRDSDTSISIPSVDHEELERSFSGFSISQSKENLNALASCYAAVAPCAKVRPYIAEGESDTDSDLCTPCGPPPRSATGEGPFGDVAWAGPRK
# Chain of KCNQ2 (Rattus norvegicus, UniProt O88943, R198A) (O88943 whole entry R198A): as the sequence (O88943 whole entry) above, with R198A counted along it
# Chain of KCNQ2/KCNQ3 (O88943 whole entry): as the sequence (O88943 whole entry) above
# Chain of KCNQ2/KCNQ3 (O88944 whole entry): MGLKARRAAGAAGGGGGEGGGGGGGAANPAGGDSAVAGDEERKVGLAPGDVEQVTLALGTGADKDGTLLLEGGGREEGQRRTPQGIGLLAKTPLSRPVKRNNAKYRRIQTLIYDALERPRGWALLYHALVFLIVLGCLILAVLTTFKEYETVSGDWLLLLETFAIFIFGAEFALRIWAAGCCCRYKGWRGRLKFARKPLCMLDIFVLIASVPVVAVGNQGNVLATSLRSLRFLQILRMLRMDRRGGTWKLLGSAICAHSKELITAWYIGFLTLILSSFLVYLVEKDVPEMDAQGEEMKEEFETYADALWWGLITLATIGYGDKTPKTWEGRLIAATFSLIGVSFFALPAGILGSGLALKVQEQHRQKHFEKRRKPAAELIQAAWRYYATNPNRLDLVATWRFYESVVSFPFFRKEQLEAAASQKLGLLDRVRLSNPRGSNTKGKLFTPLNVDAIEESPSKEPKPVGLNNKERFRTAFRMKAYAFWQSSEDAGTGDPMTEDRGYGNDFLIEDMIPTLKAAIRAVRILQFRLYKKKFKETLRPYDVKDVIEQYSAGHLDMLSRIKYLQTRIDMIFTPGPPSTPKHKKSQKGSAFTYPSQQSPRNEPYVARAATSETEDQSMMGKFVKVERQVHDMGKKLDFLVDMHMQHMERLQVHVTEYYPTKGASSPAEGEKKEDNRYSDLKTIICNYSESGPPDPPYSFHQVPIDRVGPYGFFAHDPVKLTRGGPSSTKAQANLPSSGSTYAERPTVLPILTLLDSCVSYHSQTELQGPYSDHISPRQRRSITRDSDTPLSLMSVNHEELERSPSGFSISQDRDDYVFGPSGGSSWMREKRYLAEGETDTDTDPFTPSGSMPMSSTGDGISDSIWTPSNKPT
smiles,measurement,setting,value
CCc1oc2ccccc2c1C(=O)c1cc(Br)c(O)c(Br)c1 [benzbromarone],EC50,KCNQ2 [1],28.2 ± 1.32 µM
same,fold increase of outward current at 10 μM,KCNQ2/KCNQ3,~ 1.64 ± 0.08 fold
same,EC50,KCNQ2 [2],4.32 ± 1.4 µM
